Biological target: T1, BSEP expressing on canalicular membrane (Rattus norvegicus, UniProt O70127)
T1 construct: from tissue; host or cells: liver of male SD rats: in vivo for A27, canalicular membrane vesicles for A28 and A29
T1 sequence (O70127 1-1321): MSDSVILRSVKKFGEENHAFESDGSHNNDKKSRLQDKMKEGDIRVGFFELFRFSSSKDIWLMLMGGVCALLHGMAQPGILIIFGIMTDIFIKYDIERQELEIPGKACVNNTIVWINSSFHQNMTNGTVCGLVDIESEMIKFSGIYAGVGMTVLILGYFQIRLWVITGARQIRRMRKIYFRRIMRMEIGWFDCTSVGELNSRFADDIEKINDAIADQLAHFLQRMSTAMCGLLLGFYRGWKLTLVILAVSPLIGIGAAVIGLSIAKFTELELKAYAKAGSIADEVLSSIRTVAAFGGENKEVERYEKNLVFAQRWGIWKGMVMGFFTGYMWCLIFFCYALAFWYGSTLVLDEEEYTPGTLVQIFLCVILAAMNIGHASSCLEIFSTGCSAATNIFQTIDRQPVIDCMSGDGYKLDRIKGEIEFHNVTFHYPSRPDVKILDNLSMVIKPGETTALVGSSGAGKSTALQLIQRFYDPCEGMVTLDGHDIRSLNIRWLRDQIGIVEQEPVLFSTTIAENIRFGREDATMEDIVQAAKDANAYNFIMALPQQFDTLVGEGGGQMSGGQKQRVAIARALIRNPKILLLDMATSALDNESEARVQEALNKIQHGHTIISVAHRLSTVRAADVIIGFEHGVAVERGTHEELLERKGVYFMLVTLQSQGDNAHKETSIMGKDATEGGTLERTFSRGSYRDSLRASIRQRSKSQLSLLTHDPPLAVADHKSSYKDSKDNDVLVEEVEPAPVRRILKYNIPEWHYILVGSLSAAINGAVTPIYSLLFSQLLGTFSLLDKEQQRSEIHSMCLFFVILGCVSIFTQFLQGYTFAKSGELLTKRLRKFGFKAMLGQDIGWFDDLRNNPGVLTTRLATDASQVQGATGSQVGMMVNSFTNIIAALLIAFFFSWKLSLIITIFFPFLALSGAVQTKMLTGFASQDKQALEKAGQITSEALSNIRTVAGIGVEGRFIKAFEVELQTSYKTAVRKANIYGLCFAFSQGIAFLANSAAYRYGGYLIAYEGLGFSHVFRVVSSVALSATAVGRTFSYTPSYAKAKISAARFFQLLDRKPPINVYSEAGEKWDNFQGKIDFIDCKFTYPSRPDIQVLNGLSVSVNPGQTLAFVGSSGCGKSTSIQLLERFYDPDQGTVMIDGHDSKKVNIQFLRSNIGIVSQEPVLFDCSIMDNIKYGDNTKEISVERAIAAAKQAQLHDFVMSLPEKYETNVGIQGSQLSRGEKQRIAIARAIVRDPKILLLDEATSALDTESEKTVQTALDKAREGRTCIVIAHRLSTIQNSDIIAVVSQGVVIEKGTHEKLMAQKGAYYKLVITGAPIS
Assay: [^3H] TC injection experiment in vivo with pharmacokinetic analysis
Design: species or system SD rat
Conditions: for CLbile, liver / CLbile, plasma / CLtotal / Css, liver / Css, plasma: [^3H] TC, mean ± standard error
Protocol: Male SD rats (6- to 7-week-old) were purchased from Nippon SLC. All the animals were bred under day-night reversal conditions. They were treated under standard conditions based on the protection of animals. Feed and water were given without any limitation.
It is to be noted that the present study was carried out in accordance with the guidelines determined by the animal experiment committee in the university. 4PBA or a vehicle was given to each SD rat via a tube, for a certain period of time (5, 10, and 15 days), at various doses ([…]). After completion of the 4PBA treatment, a [^3H] TC injection experiment was carried out in vivo (see Hirano et al., Mol Pharmacol 68: 800-807. 2005). [^3H] TC dissolved in a normal saline was injected into each rat, via a cannula inserted into the femoral vein thereof, at a rate of 70 ng/min/kg for 90 minutes. Blood and bile were collected for a certain period of time. Radioactivity in plasma, bile, and liver was measured.
The total clearance of plasma (CLtotal) the clearance of bile standardized with circulating plasma (CLbile, plasma), and the clearance of bile standardized with the concentration in the liver (CLbile, liver) were calculated using the following formulae:
CLbile, plasma=Vss, bile/Css, plasma; and
CLbile, liver=Vss, bile/Css, liver
(wherein “I,” “Css, plasma,” Vss, bile” and “Css, and liver” represent, respectively, an injection rate (ng/min/kg), a plasma concentration in a steady state ([…]), a bile elimination rate in a steady state (ng/min/kg), and a mean liver concentration (ng/ml)). The plasma concentration in a steady state (Css, plasma) indicates the mean value of plasma [^3H] TC concentrations at time points of 15, 30, 60, and 90 minutes. The bile elimination rate (Vss, bile) indicates the mean value of the bile elimination rates of [^3H] TC at time points of 10-15 minutes, 25-30 minutes, 55-60 minutes, and 85-90 minutes. The mean liver concentration (Css, liver) indicates the mean value of liver [^3H] TC concentrations at the termination of the in vivo experiment.

[1] = 4PBA (0.2 g/kg/day), N = 3, SD rats
[2] = 4PBA (0.6 g/kg/day), N = 9, SD rats
[3] = 4PBA (2.4 g/kg/day), N = 3, SD rats

## O=C(O)CCCc1ccccc1 [4PBA, 4-phenylbutyric acid]
0.6 k/kg/day for 10 days
  CLbile, liver with respect to [^3H] TC, greater than vehicle-treated rats: 2 times
  CLbile, plasma with respect to [^3H] TC, 4PBA-treated vs vehicle-treated SD rats: no significant difference
  CLtotal with respect to [^3H] TC, 4PBA-treated vs vehicle-treated SD rats: no significant difference
  Css, liver of [^3H] TC as fraction of that in vehicle-treated SD rats: ½
  Css, plasma of [^3H] TC, 4PBA-treated vs vehicle-treated SD rats: no significant difference
  Vss, bile of [^3H] TC, 4PBA-treated vs vehicle-treated SD rats: no significant difference
[1]
  CLbile, liver: 19.0 ± 3.9 mL/min/kg
  CLbile, plasma: 26.3 ± 2.0 mL/min/kg
  CLtotal: 26.6 ± 3.8 mL/min/kg
  Css, liver: 3.8 ± 0.7 ng/mL
  Css, plasma: 2.6 ± 0.2 ng/mL
[2]
  CLbile, liver: 29.3 ± 6.1 mL/min/kg
  CLbile, plasma: 32.3 ± 2.9 mL/min/kg
  CLtotal: 30.7 ± 3.7 mL/min/kg
  Css, liver: 2.6 ± 0.5 ng/mL
  Css, plasma: 2.0 ± 0.2 ng/mL
[3]
  CLbile, liver: 19.2 ± 3.2 mL/min/kg
  CLbile, plasma: 23.9 ± 4.7 mL/min/kg
  CLtotal: 29.6 ± 3.5 mL/min/kg
  Css, liver: 5.9 ± 1.8 ng/mL
  Css, plasma: 3.3 ± 0.7 ng/mL
4PBA (5 days), N = 6, SD rats
  CLbile, liver: 21.7 ± 3.0 mL/min/kg
  CLbile, plasma: 32.3 ± 8.5 mL/min/kg
  CLtotal: 26.6 ± 3.8 mL/min/kg
  Css, liver: 3.1 ± 0.5 ng/mL
  Css, plasma: 2.3 ± 0.3 ng/mL
4PBA (10 days), N = 9, SD rats
  CLbile, liver: 29.3 ± 6.1 mL/min/kg
  CLbile, plasma: 32.3 ± 2.9 mL/min/kg
  CLtotal: 30.7 ± 3.7 mL/min/kg
  Css, liver: 2.6 ± 0.5 ng/mL
  Css, plasma: 2.0 ± 0.2 ng/mL
4PBA (15 days), N = 3, SD rats
  CLbile, liver: 29.9 ± 1.5 mL/min/kg
  CLbile, plasma: 33.2 ± 2.0 mL/min/kg
  CLtotal: 27.5 ± 2.7 mL/min/kg
  Css, liver: 2.3 ± 0.2 ng/mL
  Css, plasma: 2.1 ± 0.2 ng/mL
SD rats, under all conditions (various times and doses)
  side effects: No clear side effects were recognized

From patent publication US20130197085A1, “AGENT AND METHOD FOR STABILIZING MEMBRANE PROTEIN” (priority 2007, published 2013)
